Like-named read-outs stand apart in the source and are kept apart here.

Our source for the IC50 and EC50 values is patent US10669272B2, “Substituted naphthyridinone compounds useful as T cell activators” (BRISTOL-MYERS SQUIBB COMPANY, priority 2018, dated 2020).

Experiment [1] deals with T1, human DGKζ (Homo sapiens, UniProt Q13574).
T1 construct: TVMV protease cleavage site (C); Hexa-His (C); made in house; host or cells: Sf9 insect cells (baculovirus, Bac-to-Bac)
The experiment can be described thus: DGKζ LIPGLO assay (extruded liposome substrate), in vitro DGK inhibition. Conditions: liposome (LIPGLO) assay; read-out: DGKz LIPGLO IC50. It is filed as biochemical.

Experiment [2] relates to naïve human CD8 T cells. Nature of the experiment: Human CD8 T cells IFN-γ assay.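 Further: Naïve human CD8 T cells stimulated with plate-bound anti-CD3 and soluble anti-CD28, IFN-γ in supernatant quantified by AlphaLISA and converted to pg/mL.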 Format: cell-based. Conditions: normalized to 3 μM reference compound with anti-CD3 plus anti-CD28 as 100% activation, read-out: HuCD8 INFG Normalized EC50.
Experiment [3] concerns the target T2, human DGKα (Homo sapiens, UniProt P23743).
T2 construct: TVMV protease cleavage site (C); Hexa-His (C); made in house; host or cells: Sf9 insect cells (baculovirus, Bac-to-Bac)
The experiment can be described thus: DGKα LIPGLO assay (extruded liposome substrate), in vitro DGK inhibition. It is filed as biochemical. Conditions: liposome (LIPGLO) assay; read-out: DGKa LIPGLO IC50.

The subject of experiment [4] is OT-1 CD8+ T cells with SIINFEKL-loaded MC38 tumor cells. Nature of the experiment: Murine cytotoxic T lymphocyte assay (IFN-γ, OT-1 CTL with MC38 tumor cells). It is filed as cell-based, mouse. Conditions: read-out: msCTL INFg IC50. A digest of the protocol:
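IFN-γ was quantified by AlphaLISA in supernatants after 24 h co-culture at 37° C. Effectors were OT-1 CD8+ CTLs (5-day peptide/mIL2 expansion), exposed 1 h to DGK inhibitors before mixing 1:10 with MC38 tumor cells loaded 3 h with 1 μg/mL SIINFEKL peptide.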

The test system of experiment [5] is Human venous whole blood. Nature of the experiment: Human whole blood IFN-γ assay.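 Further: blood from healthy donors exposed to compound for 1 h before stimulation with anti-CD3 and anti-CD28 at 1 µg/mL each, IFN-γ quantified in supernatant by AlphaLISA.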 It is filed as cell-based. Conditions: normalized to 3 μM reference compound with anti-CD3 plus anti-CD28 as 100% activation.
Experimental: Human Whole Blood IFN-γ Assay
Human venous whole blood (22.5 μL per well), obtained from healthy donors, was pre-treated with compounds for one hour at 37° C. in a humidified 95% air/5% CO2 incubator. The blood was stimulated with 2.5 μL anti-human CD3 and anti-CD28 mAb at a final concentration of 1 μg/mL each for 24 hours at 37° C. IFN-γ in the supernatants was measured using AlphLISA kit (Cat # AL217).
The mark [6] stands for this setting: Homo sapiens, 24 h, read-out: INFg Whole Blood Normalized Agonist EC50, human whole blood.
The mark [7] stands for this setting: human whole blood, read-out: INFg Whole Blood Normalized Agonist EC50.

T1 sequence (Q13574 with tags, fused parts or gaps isoform Q13574-4): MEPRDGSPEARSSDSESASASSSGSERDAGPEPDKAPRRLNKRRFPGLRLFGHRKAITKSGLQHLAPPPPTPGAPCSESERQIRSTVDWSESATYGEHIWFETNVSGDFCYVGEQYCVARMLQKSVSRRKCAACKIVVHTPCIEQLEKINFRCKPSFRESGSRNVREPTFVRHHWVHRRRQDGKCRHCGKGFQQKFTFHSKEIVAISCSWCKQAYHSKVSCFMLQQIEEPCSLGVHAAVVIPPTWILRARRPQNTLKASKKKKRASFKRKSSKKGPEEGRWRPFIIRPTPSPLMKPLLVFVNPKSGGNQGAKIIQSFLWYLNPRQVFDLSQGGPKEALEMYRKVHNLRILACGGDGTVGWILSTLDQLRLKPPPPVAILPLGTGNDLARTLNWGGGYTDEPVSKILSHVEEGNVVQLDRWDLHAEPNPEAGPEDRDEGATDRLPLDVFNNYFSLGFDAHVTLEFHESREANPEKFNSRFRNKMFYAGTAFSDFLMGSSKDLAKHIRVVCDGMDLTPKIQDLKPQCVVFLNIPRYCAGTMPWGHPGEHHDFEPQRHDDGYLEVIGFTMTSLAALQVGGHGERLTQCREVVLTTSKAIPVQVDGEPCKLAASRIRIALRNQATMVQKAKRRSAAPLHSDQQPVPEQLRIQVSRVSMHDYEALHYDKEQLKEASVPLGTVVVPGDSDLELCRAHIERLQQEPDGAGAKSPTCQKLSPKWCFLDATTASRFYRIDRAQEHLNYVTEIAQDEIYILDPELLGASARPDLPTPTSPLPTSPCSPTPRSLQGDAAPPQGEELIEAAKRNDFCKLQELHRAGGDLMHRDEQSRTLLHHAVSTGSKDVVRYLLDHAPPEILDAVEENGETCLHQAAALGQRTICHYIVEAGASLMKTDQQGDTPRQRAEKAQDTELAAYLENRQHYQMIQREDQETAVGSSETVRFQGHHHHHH
T2 sequence (P23743 with tags, fused parts or gaps): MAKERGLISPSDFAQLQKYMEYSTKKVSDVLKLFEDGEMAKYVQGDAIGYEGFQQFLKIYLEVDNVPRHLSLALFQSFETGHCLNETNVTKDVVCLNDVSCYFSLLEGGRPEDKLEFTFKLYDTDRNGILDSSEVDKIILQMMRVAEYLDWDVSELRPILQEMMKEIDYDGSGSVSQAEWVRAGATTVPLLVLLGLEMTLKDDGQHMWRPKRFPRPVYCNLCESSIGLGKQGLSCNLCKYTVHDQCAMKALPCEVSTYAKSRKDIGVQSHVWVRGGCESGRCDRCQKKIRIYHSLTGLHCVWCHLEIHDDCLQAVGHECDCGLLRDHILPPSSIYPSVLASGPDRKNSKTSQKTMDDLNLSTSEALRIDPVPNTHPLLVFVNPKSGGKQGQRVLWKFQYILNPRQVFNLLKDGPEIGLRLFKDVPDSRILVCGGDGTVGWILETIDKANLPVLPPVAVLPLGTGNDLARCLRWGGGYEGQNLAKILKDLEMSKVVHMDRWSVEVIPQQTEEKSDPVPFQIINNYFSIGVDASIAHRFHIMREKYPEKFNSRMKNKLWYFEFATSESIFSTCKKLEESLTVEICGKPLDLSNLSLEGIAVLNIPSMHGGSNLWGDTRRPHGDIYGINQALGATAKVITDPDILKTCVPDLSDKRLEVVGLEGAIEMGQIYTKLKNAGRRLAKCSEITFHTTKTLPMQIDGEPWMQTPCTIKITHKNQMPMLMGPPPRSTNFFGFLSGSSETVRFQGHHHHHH

As for `CC1CN(c2cc(=O)n(C)c3ccc(C#N)nc23)CC(C)N1C(c1ccc(F)cc1)c1ccc(F)cc1` (centres unmarked) [Example 163, 8-(4-(bis(4-fluorophenyl)methyl)-3,5-dimethylpiperazin-1-yl)-5-methyl-6-oxo-5,6-dihydro-1,5-naphthyridine-2-carbonitrile], the IC50 came out at 12000 nM in experiment [1]; 16000 nM in experiment [3]; 2100 nM in experiment [4] (Mus musculus, MC-38). In experiment [2] (Homo sapiens, T-cell, 20 h), the EC50 was found to be 1500 nM.
Consider `C[C@@H]1CN(c2cc(=O)n(C)c3ccc(C#N)nc23)[C@@H](C)CN1C(c1ccc(F)cc1)c1ccccc1F` (single isomer, unassigned) [Example 304], for which the figures for the EC50 in experiment [2] and in experiment [5] (setting [6]) were 8.5 nM and 490 nM, respectively. Also, the IC50 in experiment [4] worked out at 47 nM.
For `C[C@H]1CN(C(c2ccc(F)cc2)c2ccc(F)cc2)CCN1c1cc(=O)n(C)c2ccc(C#N)nc12` [Example 134, (S)-8-(4-(bis(4-fluorophenyl)methyl)-2-methylpiperazin-1-yl)-5-methyl-6-oxo-5,6-dihydro-1,5-naphthyridine-2-carbonitrile], the IC50 in experiment [1] is 4900 nM; in experiment [3] it was 13000 nM; in experiment [4] (Mus musculus, MC-38), 390 nM. The EC50 in experiment [2] (Homo sapiens, T-cell, 20 h) was 590 nM.
In the case of `CC(C)OC(=O)C1CN(c2c(C#N)c(=O)n(C)c3ccc(C#N)nc23)CCN1C(c1ccc(F)cc1)c1ccc(F)cc1` (single isomer, unassigned) [Example 64, Isopropyl 1-(bis(4-fluorophenyl)methyl)-4-(3,6-dicyano-1-methyl-2-oxo-1,2-dihydro-1,5-naphthyridin-4-yl)piperazine-2-carboxylate], the IC50 in experiment [1] came to 240000 nM; in experiment [3], 240000 nM; in experiment [4] (Mus musculus, MC-38), 8800 nM. For the same compound, in experiment [2], the concentration giving a half-maximal response (EC50) was found to be 10000 nM.
Consider `Cn1c(=O)cc(N2CCN(C(c3ccc(F)cc3)c3ccc(F)cc3)CC2C(=O)NC2CC2)c2nc(C#N)ccc21` (single isomer, unassigned) [Example 139, 4-(bis(4-fluorophenyl)methyl)-1-(6-cyano-1-methyl-2-oxo-1,2-dihydro-1,5-naphthyridin-4-yl)-N-cyclopropylpiperazine-2-carboxamide], for which the IC50 in experiment [1] is 110000 nM; in experiment [3], 240000 nM; in experiment [4] (Mus musculus, MC-38), 10000 nM. For the same compound, the EC50 in experiment [2] is 50000 nM.
Turning to `Cn1c(=O)c(C#N)c(N2CCN(C(c3ccc(F)cc3)c3ccc(F)cc3)C(C(=O)O)C2)c2nc(C#N)ccc21` (single isomer, unassigned) [Example 54, 1-(bis(4-fluorophenyl)methyl)-4-(3,6-dicyano-1-methyl-2-oxo-1,2-dihydro-1,5-naphthyridin-4-yl)piperazine-2-carboxylic acid], the IC50 in experiment [1] was found to be 120000 nM; in experiment [3] it was 200000 nM; in experiment [4] (Mus musculus, MC-38) it was 10000 nM. In addition, the EC50 in experiment [2] amounted to 10000 nM.
Regarding `COC(=O)[C@@H]1CN(c2cc(=O)n(C)c3ccc(C#N)nc23)CCN1C(c1ccc(F)cc1)c1ccc(F)cc1` [Example 66, Methyl (S)-1-(bis(4-fluorophenyl)methyl)-4-(6-cyano-1-methyl-2-oxo-1,2-dihydro-1,5-naphthyridin-4-yl)piperazine-2-carboxylate], the IC50 turned out to be 1200 nM in experiment [1]; 2400 nM in experiment [3]; 66 nM in experiment [4] (Mus musculus, MC-38). Moreover, in experiment [2] (Homo sapiens, T-cell, 20 h), the EC50 came out at 160 nM.
As to `C[C@@H]1CN(C(c2ccc(F)cc2)c2ccc(F)cc2)[C@@H](C)CN1c1cc(=O)n(C)c2ccc(C#N)nc12` [Example 4, 8-((2R,5S)-4-(bis(4-fluorophenyl)methyl)-2,5-dimethylpiperazin-1-yl)-5-methyl-6-oxo-5,6-dihydro-1,5-naphthyridine-2-carbonitrile], the EC50 in experiment [2] (Homo sapiens, T-cell, 20 h) is 300 nM; in experiment [5] (setting [6]), 3500 nM. Besides, in experiment [4] (Mus musculus, MC-38), the IC50 was determined as 320 nM.
`C[C@@H]1CN(c2cc(=O)n(C)c3ccc(C#N)nc23)[C@@H](C)CN1C(c1ccc(F)cc1)c1ccccc1F` (single isomer, unassigned) [Example 305]: the EC50 in experiment [2] turned out to be 26 nM; in experiment [5] (read-out: INFg Whole Blood Normalized Agonist EC50, human whole blood), 680 nM. For the same compound, the IC50 in experiment [4] was determined as 23 nM.
On to `COC(=O)C1CN(C(c2ccc(F)cc2)c2ccc(F)cc2)CCN1c1cc(=O)n(C)c2ccc(C#N)nc12` (single isomer, unassigned) [Example 136, Methyl 4-(bis(4-fluorophenyl)methyl)-1-(6-cyano-1-methyl-2-oxo-1,2-dihydro-1,5-naphthyridin-4-yl)piperazine-2-carboxylate], for which the IC50 in experiment [1] is 39000 nM; in experiment [3], 25000 nM; in experiment [4], 520 nM. In addition, in experiment [2] (Homo sapiens, T-cell, 20 h), the EC50 turned out to be 950 nM.
`Cn1c(=O)c(C#N)c(N2CCN(C(c3ccc(F)cc3)c3ccc(F)cc3)C(CO)C2)c2nc(C#N)ccc21` (single isomer, unassigned) [Example 15, 8-(4-(bis(4-fluorophenyl)methyl)-3-(hydroxymethyl)piperazin-1-yl)-5-methyl-6-oxo-5,6-dihydro-1,5-naphthyridine-2,7-dicarbonitrile]: the IC50 was found to be 6600 nM in experiment [1]; 5100 nM in experiment [3]; 910 nM in experiment [4] (Mus musculus, MC-38). In addition, the EC50 in experiment [2] was 10000 nM.
In the case of `C[C@@H]1CN(c2cc(=O)n(C)c3ccc(C#N)nc23)[C@@H](C)CN1C(c1ccccc1)c1ccc(F)cc1` (single isomer, unassigned) [Example 183], the EC50 in experiment [2] (Homo sapiens, T-cell, 20 h) worked out at 39 nM; in experiment [5] (Homo sapiens, human whole blood, read-out: INFg Whole Blood Normalized Agonist EC50), 700 nM. The IC50 in experiment [4] (Mus musculus, MC-38) is 33 nM.
As to `Cn1c(=O)c(C#N)c(N2CCN(C(c3ccc(F)cc3)c3ccc(F)cc3)C(C(=O)NC3CC3)C2)c2nc(C#N)ccc21` (single isomer, unassigned) [Example 60, 1-(bis(4-fluorophenyl)methyl)-N-cyclopropyl-4-(3,6-dicyano-1-methyl-2-oxo-1,2-dihydro-1,5-naphthyridin-4-yl)piperazine-2-carboxamide], the IC50 in experiment [1] was 72000 nM; in experiment [3] it was 240000 nM; in experiment [4] (Mus musculus, MC-38) it was 10000 nM. Moreover, the EC50 in experiment [2] (Homo sapiens, T-cell, 20 h) came out at 10000 nM.
Consider `CC(C)OC(=O)C1CN(c2cc(=O)n(C)c3ccc(C#N)nc23)CCN1C(c1ccc(F)cc1)c1ccc(F)cc1` (single isomer, unassigned) [Example 63, Isopropyl 1-(bis(4-fluorophenyl)methyl)-4-(6-cyano-1-methyl-2-oxo-1,2-dihydro-1,5-naphthyridin-4-yl)piperazine-2-carboxylate], for which the IC50 came out at 240000 nM in experiment [1], 240000 nM in experiment [3] and 1600 nM in experiment [4]. For the same compound, the EC50 in experiment [2] stood at 210 nM.
Take `Cn1c(=O)c(C#N)c(N2CCN(C(c3ccc(F)cc3)c3ccc(F)cc3)C(CO)C2)c2nc(C#N)ccc21` (single isomer, unassigned) [Example 16, 8-(4-(bis(4-fluorophenyl)methyl)-3-(hydroxymethyl)piperazin-1-yl)-5-methyl-6-oxo-5,6-dihydro-1,5-naphthyridine-2,7-dicarbonitrile]: the IC50 in experiment [1] is 12000 nM; in experiment [3], 7500 nM; in experiment [4], 1400 nM. Besides, the EC50 in experiment [2] is 530 nM.
For `CC(C)C(=O)C1CN(c2cc(=O)n(C)c3ccc(C#N)nc23)CCN1C(c1ccc(F)cc1)c1ccc(F)cc1` (single isomer, unassigned) [Example 86, 8-(4-(bis(4-fluorophenyl)methyl)-3-isobutyrylpiperazin-1-yl)-5-methyl-6-oxo-5,6-dihydro-1,5-naphthyridine-2-carbonitrile], the IC50 was found to be 1200 nM in experiment [1], 7400 nM in experiment [3] and 200 nM in experiment [4]. Moreover, in experiment [5] (Homo sapiens, 24 h, human whole blood, read-out: INFg Whole Blood Normalized Agonist EC50), the EC50 came out at 2900 nM.
As for `COC(=O)C1CN(c2cc(=O)n(C)c3ccc(C#N)nc23)CCN1C(c1ccc(F)cc1)c1ccc(F)cc1OC` (single isomer, unassigned) [Example 69, Methyl 4-(6-cyano-1-methyl-2-oxo-1,2-dihydro-1,5-naphthyridin-4-yl)-1-((4-fluoro-2-methoxyphenyl)(4-fluorophenyl)methyl)piperazine-2-carboxylate], the half-inhibitory concentration (IC50) in experiment [1] came to 850 nM; in experiment [3], 21000 nM; in experiment [4], 220 nM. Further, in experiment [5] (setting [7]), the concentration giving a half-maximal response (EC50) was 2500 nM.
In the case of `COC(=O)C1CN(c2cc(=O)n(C)c3ccc(C#N)nc23)CCN1C(c1ccc(F)cc1)c1ccc(F)cc1OC` (single isomer, unassigned) [Example 72, Methyl 4-(6-cyano-1-methyl-2-oxo-1,2-dihydro-1,5-naphthyridin-4-yl)-1-((4-fluoro-2-methoxyphenyl)(4-fluorophenyl)methyl)piperazine-2-carboxylate], the IC50 in experiment [1] was 760 nM; in experiment [3] it was 40000 nM; in experiment [4], 78 nM. Moreover, the EC50 in experiment [5] (setting [7]) was 1200 nM.
